Assay results as given in patent publication US20250170104A1, “INHIBITORS OF PSEUDOMONAS AERUGINOSA VIRULENCE FACTOR Lasß” (priority 2022, published 2025).

target: LasB (Pseudomonas aeruginosa (strain ATCC 15692 / DSM 22644 / CIP 104116 / JCM 14847 / LMG 12228 / 1C / PRS 101 / PAO1), UniProt P14756); assay: In vitro LasB activity assay (fluorogenic substrate); type: biochemical; conditions: LasB 0.3 nM, substrate 150 μM, mean ± SD
Experimental: The LasB activity assay was performed as described previously (Nishino N, Powers J C. Pseudomonas aeruginosa elastase. Development of a new substrate, inhibitors, and an affinity ligand. J Biol Chem. 1980 Apr. 25; 255(8):3482-6) using the fluorogenic substrate 2-Aminobenzoyl-L-Alanyl-Glycyl-L-Leucyl-L-Alanyl-para-Nitro-Benzyl-Amide, purchased from Peptides International (Louisville, KY, USA) and vivitide, LLC (Gardner, MA, USA).
Fluorescence intensity was measured for 60 min at 37° C. in black 384-well microtiter plates (Greiner BioOne, Kremsmünster, Austria) using a CLARIOstar microplate reader (BMG Labtech, Ortenberg, Germany) with an excitation wavelength of […] and an emission wavelength of 415±20 nm. The assay was performed in a final volume of 50 μL of assay buffer (50 mM Tris, pH 7.2, 2.5 mM CaCl2), 0.075% Pluronic F-127, 5% DMSO) containing LasB at a final concentration of […] 0.3 nM and the substrate at 150 μM. Before substrate addition, compounds were preincubated with the enzyme at 37° C. for 15 min. Experiments were performed in duplicates and repeated for at least two times. Blank controls without enzyme were performed. After blank subtraction, the slope of samples containing inhibitors (v) was divided by the slope of a simultaneously started uninhibited enzymatic reaction (v0). IC50 values were determined with nonlinear regression using GraphPad Prism 5 (Graph Pad Software, San Diego, CA, USA) and are given as mean values ±standard deviation (SD). The slope factor was constrained to 1.

Chain of LasB (P14756 198-498): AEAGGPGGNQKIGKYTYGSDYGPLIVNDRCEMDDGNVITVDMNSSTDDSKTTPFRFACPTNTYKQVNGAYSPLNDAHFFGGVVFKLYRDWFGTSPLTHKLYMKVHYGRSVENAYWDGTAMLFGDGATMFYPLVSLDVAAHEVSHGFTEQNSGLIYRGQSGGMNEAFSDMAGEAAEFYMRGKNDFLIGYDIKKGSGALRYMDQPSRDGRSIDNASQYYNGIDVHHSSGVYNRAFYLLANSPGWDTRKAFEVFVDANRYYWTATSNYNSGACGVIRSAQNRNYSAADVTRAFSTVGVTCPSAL

| Structure (SMILES) | IC50 [nM] |
| --- | --- |
| CC(C)CC(C(=O)NO)C(=O)Nc1ccc(Cn2cc(CNS(=O)(=O)c3ccc(C(C)C)cc3)nn2)cc1 (stereo not shown) [Compound 207, 2-(hydroxycarbamoyl)-N-[4-[[4-[[(4-isopropylphenyl)sulfonylamino]methyl]triazol-1-yl]methyl]phenyl]-4-methyl-pentanamide] | 3.1 ± 0.1 |
| CC(C)CC(C(=O)NO)C(=O)Nc1ccc(Cn2cc(COc3ccc(Cl)cc3)nn2)cc1 (stereo not shown) [Compound 135, N-[4-[[4-[(4-Chlorophenoxy)methyl]triazol-1-yl]methyl]phenyl]-2-(hydroxycarbamoyl)-4-methyl-pentanamide] | 9.8 ± 0.3 |
| CC(C)CC(C(=O)NO)C(=O)Nc1ccc(Cn2cc(CNC(=O)c3ccc(I)cc3)nn2)cc1 (stereo not shown) [Compound 132, N-[[1-[[4-[[2-(Hydroxycarbamoyl)-4-methyl-pentanoyl]amino]phenyl]methyl]triazol-4-yl]methyl]-4-iodo-benzamide] | 22.8 ± 0.1 |
| CC(C)CC(C(=O)NO)C(=O)Nc1ccc(Cn2cc(CNS(=O)(=O)c3ccc(N)cc3)nn2)cc1 (stereo not shown) [Compound 210, N-[4-[[4-[[(4-aminophenyl)sulfonylamino]methyl]triazol-1-yl]methyl]phenyl]-2-(hydroxycarbamoyl)-4-methyl-pentanamide] | 7.7 ± 0.2 |
| CC(C)CC(C(=O)NO)C(=O)Nc1ccc(Cn2cc(CN3C(=O)c4ccccc4S3(=O)=O)nn2)cc1 (stereo not shown) [Compound 139, 2-(Hydroxycarbamoyl)-4-methyl-N-[4-[[4-[(1,1,3-trioxo-1,2-benzothiazol-2-yl)methyl]triazol-1-yl]methyl]phenyl]pentanamide] | 19.3 ± 0.6 |
| CC(C)CC(C(=O)NO)C(=O)Nc1ccc(Cn2nncc2CNS(=O)(=O)c2ccc(F)cc2)cc1 (stereo not shown) [Compound 191, N-[4-[[5-[[(4-Fluorophenyl)sulfonylamino]methyl]triazol-1-yl]methyl]phenyl]-2-(hydroxycarbamoyl)-4-methyl-pentanamide] | 7.9 ± 0.1 |
| CC(=O)c1ccc(S(=O)(=O)NCc2cn(Cc3ccc(NC(=O)C(CC(C)C)C(=O)NO)cc3)nn2)cc1 (stereo not shown) [Compound 203, N-[4-[[4-[[(4-acetylphenyl)sulfonylamino]methyl]triazol-1-yl]methyl]phenyl]-2-(hydroxycarbamoyl)-4-methyl-pentanamide] | 7.9 ± 0.2 |
| CC(C)CC(C(=O)NO)C(=O)Nc1ccc(Cn2nncc2CNS(=O)(=O)CC(C)C)cc1 (stereo not shown) [Compound 192, 2-(Hydroxycarbamoyl)-N-[4-[[5-[(isobutylsulfonylamino)methyl]triazol-1-yl]methyl]phenyl]-4-methyl-pentanamide] | 6.8 ± 0.1 |
| CC(C)CC(C(=O)NO)C(=O)Nc1ccc(Cn2cc(CNS(=O)(=O)C3CCCCC3)nn2)cc1 (stereo not shown) [Compound 168, N-[4-[[4-[(Cyclohexylsulfonylamino)methyl]triazol-1-yl]methyl]phenyl]-2-(hydroxycarbamoyl)-4-methyl-pentanamide] | 2.7 ± 0.2 |
| CC(C)CC(C(=O)NO)C(=O)Nc1ccc(Cn2cc(CNS(=O)(=O)c3ccc(OC(C)C)cc3)nn2)cc1 (stereo not shown) [Compound 206, 2-(hydroxycarbamoyl)-N-[4-[[4-[[(4-isopropoxyphenyl)sulfonylamino]methyl]triazol-1-yl]methyl]phenyl]-4-methyl-pentanamide] | 7.8 ± 0.3 |
| CC(C)CC(C(=O)NO)C(=O)Nc1ccc(Cn2cc(CNS(=O)(=O)Cc3ccc(Cl)cc3)nn2)cc1 (stereo not shown) [Compound 166, N-[4-[[4-[[(4-Chlorophenyl)methylsulfonylamino]methyl]triazol-1-yl]methyl]phenyl]-2-(hydroxycarbamoyl)-4-methyl-pentanamide] | 5.2 ± 0.3 |
| CC(=O)Nc1ccccc1OCc1cn(Cc2ccc(NC(=O)C(CC(C)C)C(=O)NO)cc2)nn1 (stereo not shown) [Hit L5, N-[4-[[4-[(2-Acetamidophenoxy)methyl]triazol-1-yl]methyl]phenyl]-2-(hydroxycarbamoyl)-4-methyl-pentanamide] | 13.8 ± 0.3 |
| CC(C)CC(C(=O)NO)C(=O)Nc1ccc(Cn2cc(CNc3ccc(I)cc3)nn2)cc1 (stereo not shown) [Compound 134, 2-(Hydroxycarbamoyl)-N-[4-[[4-[(4-iodoanilino)methyl]triazol-1-yl]methyl]phenyl]-4-methyl-pentanamide] | 8.4 ± 0.5 |
| CC(C)CC(C(=O)NO)C(=O)Nc1ccc(Cn2cc(Cc3ccc(Cl)cc3)nn2)cc1 (stereo not shown) [Compound 137, N-[4-[[4-[(4-Chlorophenyl)methyl]triazol-1-yl]methyl]phenyl]-2-(hydroxycarbamoyl)-4-methyl-pentanamide] | 16.9 ± 1.3 |
| COCCOc1ccc(S(=O)(=O)NCc2cn(Cc3ccc(NC(=O)C(CC(C)C)C(=O)NO)cc3)nn2)cc1 (stereo not shown) [Compound 205, 2-(hydroxycarbamoyl)-N-[4-[[4-[[[4-(2-methoxyethoxy)phenyl]sulfonylamino]methyl]triazol-1-yl]methyl]phenyl]-4-methyl-pentanamide] | 29.5 ± 0.7 |
| CC(C)CC(C(=O)NO)C(=O)Nc1ccc(Cn2cc(CNC(=O)OC(C)(C)C)nn2)cc1 (stereo not shown) [Compound 133, Tert-butyl N-[[1-[[4-[[2-(hydroxycarbamoyl)-4-methyl-pentanoyl]amino]phenyl]methyl]triazol-4-yl]methyl]carbamate] | 9.8 ± 0.4 |
| CC(C)CC(C(=O)NO)C(=O)Nc1ccc(Cn2cc(CN)nn2)cc1 (stereo not shown) [Compound 140, N-[4-[[4-(Aminomethyl)triazol-1-yl]methyl]phenyl]-2-(hydroxycarbamoyl)-4-methyl-pentanamide] | 55.9 ± 2.3 |
| CC(C)CC(C(=O)NO)C(=O)Nc1ccc(Cn2cc(CNS(=O)(=O)CC34CCC(CC3=O)C4(C)C)nn2)cc1 (stereo not shown) [Hit L2, N-[4-[[4-[[(7,7-Dimethyl-2-oxo-norbornan-1-yl)methylsulfonylamino]methyl]triazol-1-yl]methyl]phenyl]-2-(hydroxycarbamoyl)-4-methyl-pentanamide] | 5.3 ± 0.1 |
| CC(C)CC(C(=O)NO)C(=O)Nc1ccc(Cn2cc(-c3ccc(I)cc3)nn2)cc1 (stereo not shown) [Compound 138, 2-(Hydroxycarbamoyl)-N-[4-[[4-(4-iodophenyl)triazol-1-yl]methyl]phenyl]-4-methyl-pentanamide] | 37.8 ± 2.9 |
| CC(C)CCC(C(=O)NO)C(=O)Nc1ccc(Cn2cc(CNS(=O)(=O)c3ccc(I)cc3)nn2)cc1 (stereo not shown) [Compound 215, 2-(hydroxycarbamoyl)-N-[4-[[4-[[(4-iodophenyl)sulfonylamino]methyl]triazol-1-yl]methyl]phenyl]-5-methyl-hexanamide] | 48.5 ± 1.4 |
| O=C(NO)C(CC1CC1)C(=O)Nc1ccc(Cn2cc(CNS(=O)(=O)c3ccc(I)cc3)nn2)cc1 (stereo not shown) [Compound 183, 2-(Cyclopropylmethyl)-3-(hydroxyamino)-N-[4-[[4-[[(4-iodophenyl)sulfonylamino]methyl]triazol-1-yl]methyl]phenyl]-3-oxo-propanamide] | 9.9 ± 0.3 |
| O=C(NO)C(Cc1ccccc1)C(=O)Nc1ccc(Cn2cc(CNS(=O)(=O)c3ccc(I)cc3)nn2)cc1 (stereo not shown) [Compound 179, 2-Benzyl-3-(hydroxyamino)-N-[4-[[4-[[(4-iodophenyl)sulfonylamino]methyl]triazol-1-yl]methyl]phenyl]-3-oxo-propanamide] | 1 ± 0.6 |
| CC(C)CC(C(=O)NO)C(=O)Nc1ccc(Cn2cc(CNS(=O)(=O)c3cccc(Cl)c3)nn2)cc1 (stereo not shown) [Compound 164, N-[4-[[4-[[(3-Chlorophenyl)sulfonylamino]methyl]triazol-1-yl]methyl]phenyl]-2-(hydroxycarbamoyl)-4-methyl-pentanamide] | 2.4 ± 0.1 |
| COC(=O)c1ccc(S(=O)(=O)NCc2cn(Cc3ccc(NC(=O)C(CC(C)C)C(=O)NO)cc3)nn2)cc1 (stereo not shown) [Compound 204, methyl 4-[[1-[[4-[[2-(hydroxycarbamoyl)-4-methyl-pentanoyl]amino]phenyl]methyl]triazol-4-yl]methylsulfamoyl]benzoate] | 13 ± 0.4 |
| CC(C)CC(C(=O)NO)C(=O)Nc1ccc(Cn2cc(CNS(=O)(=O)c3ccccc3Cl)nn2)cc1 (stereo not shown) [Compound 163, N-[4-[[4-[[(2-Chlorophenyl)sulfonylamino]methyl]triazol-1-yl]methyl]phenyl]-2-(hydroxycarbamoyl)-4-methyl-pentanamide] | 4.3 ± 0.1 |
| CC(C)CC(C(=O)NO)C(=O)Nc1ccc(Cn2nncc2CNS(=O)(=O)c2ccc(I)cc2)cc1 (stereo not shown) [Compound 190, 2-(Hydroxycarbamoyl)-N-[4-[[5-[[(4-iodophenyl)sulfonylamino]methyl]triazol-1-yl]methyl]phenyl]-4-methyl-pentanamide] | 7.8 ± 0.1 |
| CC(C(=O)NO)C(=O)Nc1ccc(Cn2cc(CNS(=O)(=O)c3ccc(I)cc3)nn2)cc1 (stereo not shown) [Compound 217, 3-(hydroxyamino)-N-[4-[[4-[[(4-iodophenyl)sulfonylamino]methyl]triazol-1-yl]methyl]phenyl]-2-methyl-3-oxo-propanamide] | 278 ± 9.7 |
| CC(C)CC(C(=O)NO)C(=O)Nc1ccc(Cn2cc(CNS(=O)(=O)c3ccc(-c4ccccc4)cc3)nn2)cc1 (stereo not shown) [Hit L3, 2-(Hydroxycarbamoyl)-4-methyl-N-[4-[[4-[[(4-phenylphenyl)sulfonylamino]methyl]triazol-1-yl]methyl]phenyl]pentanamide] | 13.9 ± 0.3 |
